pIC50: −log10 of the molar value. “Also recorded” adds a separate entry of the source. Starred links: 1 amine or outer side, 2 acyl side, 3 side chain; linkers in the order of their positions; H or OH if unused. Positions of bridges follow the written chain, without caps; N, C: chain ends. Non-standard residues stand in square brackets, D forms with d. Residues, ends and D or L forms follow the SMILES beside them. *: point of attachment. Ahp(3S,6R)alloIle = CC[C@@H](C)[C@@H](C(=O)[*:2])N1C(=O)[C@@H](N[*:1])CC[C@H]1O; Leu(3R-OH,Nα-propionyl) = CCC(=O)N[C@H](C(=O)*)[C@H](O)C(C)C; Propanoyl(2R-OMe,3-OSO3H) = CO[C@H](COS(=O)(=O)O)C(=O)*; NMeTyr(3-Br,OMe) = CN[C@@H](Cc1ccc(OC)c(Br)c1)C(=O)O; X1 = CC(C)[C@@H](O[*:3])[C@H](N[*:1])C(=O)[*:2]; NMeT = CN[C@H](C(=O)O)[C@@H](C)O; dPhLac = O=C(O)[C@H](O)Cc1ccccc1; NMeA = CN[C@@H](C)C(=O)O; NMeDha = C=C(NC)C(=O)O
Target: T1, Chymotrypsin (Bos taurus, UniProt P00766)
T1 construct: purchased Sigma-Aldrich
Assay: Native metabolomics / native MS detection of chymotrypsin-ligand complexes
Type: binding
Conditions: control compounds pooled at 10 µg/mL
Experimental: For native metabolomics experiments, the same chromatographic parameters were used and in addition, 220 µL/min (setup A) or 150 µL/min (setup B) ammonium acetate buffer was infused post-column through a make-up pump and a PEEKT-splitter and enzyme solution was infused with 2 µL/min flow rate via the integrated syringe pump. ESI settings were set to 40 arb. units sheath gas flow, the auxiliary gas flow was set to 10 arb. units and sweep gas flow was set to 0 arb. units. The auxiliary gas temperature was set to 150 °C. The spray voltage was set to 3 kV and the inlet capillary was heated to 253 °C. S-lens level was set to 30 V applied. MS scan range was set to 2000-4000 m/z (setup A) and 2500–4000 m/z (setup B) with a resolution Rm/z 200 140,000 (setup A) and 120,000 (setup B) with 2 microscans. MS acquisition was performed in all-ion fragmentation (AIF) mode with Rm/z 200 with 20% HCD collision energy and an isolation window of 2000 –4000 m/z (setup A) or 2500–4000 m/z (setup B).
For native LC-MS data, multiple charged spectra were deconvoluted using the Xtract algorithm in Qualbrowser, part of the Xcalibur software (Thermo Scientific) and also using FLASHDeconv (version 2.0Beta) {Jeong, K. et al. FLASHDeconv: Ultrafast, High-Quality Feature Deconvolution for Top- Down Proteomics. Cell Syst 10, 213-218 e216 (2020).}. For Xtract algorithm, both deconvoluted native LC-MS and metabolomics LC-MS/MS.raw files were converted to the centroid.mzML file format using MSconvert of the proteowizard software package. For FLASHDeconv, the raw files were converted into centroid m/zML again using MSconvert software first. Then the converted mzML files were deconvolved to generate deconvolved.mzML format files. Feature finding of both file types was performed using a modified version of MZmine2.37 (corr.17.7). Feature tables from both intact protein mass and metabolomics data were matched by their retention time (RT) and an m/z offset corresponding to the mass of chymotrypsin (25234 Da) with an RT tolerance of 0.2 min and a mass tolerance of 4 Da.
To optimize ESI setting as well as the influence of NH4Acetate concentration and pH, we used molassamide as a test compound. For optimization of ESI settings, we performed flow injections without a column and ramped ESI aux gas temperature, in-source CID energy, S-lense RF voltage. Optimization of pH values over the entire LC gradient and peak intensities were both assessed using three different make-up buffers. Make-up buffer 1 was water, make-up buffer 2 was 10 mM NH4Acetate buffer, and make-up buffer 3 was 10 mM NH4Acetate buffer + 0.2% ammonium hydroxide, v/v. Effects of NH4Acetate concentration was assessed with an online mixed make-up flow (using Experimental Setup B) with the low-pressure gradient pump. As solvent A we used LC-MS grade water and 100 mM NH4Acetate as solvent B. Molassamide was prepared as 100 µM solutions from a 10 mM stock solution in DMSO by preparing a 1:100 dilution into solvent mixture 1 (water + 10% acetonitrile + 0.1% formic acid). Samples were analyzed as described in micro-flow LC-MS/MS data acquisition (setup A); 2 µL of each solution were injected into the mass spectrometer, while chymotrypsin (Sigma), dissolved in water to a final concentration of 2 mg/mL, was injected through the syringe pump at a flow rate of 2 µL/min. pH values were assessed by disconnecting the flow to the source and collecting ~30 µL of solvent every minute, then testing this value on pH paper.
Molassamide was prepared as 100 µM solutions from a 10 mM stock solution in DMSO by preparing a 1:100 dilution into solvent mixture 1 (water + 10% acetonitrile + 0.1% formic acid). From this 100 µM solution, dilutions were prepared at 10, 1, and 0.1 µM into solvent mixture 1. 2 µL of each solution were injected into the mass spectrometer. […]

| Compound | binding to chymotrypsin under native MS conditions |
| --- | --- |
| C=C1C(=O)N[C@@H](C)C(=O)N(C)[C@@H](C)C(=O)N[C@@H]([C@H](OC(=O)[C@@H](NC(=O)CC)[C@H](O)C(C)C)C(C)C)C(=O)N(C)[C@@H]([C@@H](C)OC)C(=O)O[C@H](C(C)C)[C@H](NC(C)=O)C(=O)O[C@H](Cc2ccccc2)C(=O)N1C [FR900359] (Ac-[X1][dPhLac][NMeDha]A[NMeA][X1](Leu(3R-OH,Nα-propionyl))[NMeT](Me); ester 1-C) | did not observe the binding; also recorded: no binding |
| Oc1cc(O)cc(O)c1 [phloroglucinol] | did not observe the binding; also recorded: no binding |
| CC[C@H](C)[C@@H](C(=O)O[C@@H](CC(C)C)C(=O)N[C@@H](CC(C)C)C(=O)N[C@@H](C)/C=C/C(=O)N1C(=O)C=C(OC)[C@@H]1C)N(C)C [gallinamide A] | did not observe the binding; also recorded: no binding |
| O=C1c2ccc(O)c(O)c2C(=O)c2c(O)ccc(O)c21 [quinalizarin] | did not observe the binding; also recorded: no binding |
| O=c1c(-c2ccc(O)cc2)coc2cc(O)cc(O)c12 [genistein] | did not observe the binding; also recorded: no binding |

Tested on: Chymotrypsin
Assay: not given
Set-up: method as in earlier work
Conditions: Supplementary Table 5, Top 50 chymotrypsin inhibitors among Ahp-cyclodepsipeptides; cited from earlier work

| Compound | pIC50 |
| --- | --- |
| CC[C@H](C)[C@@H]1NC(=O)[C@H](Cc2ccc(OC)cc2)N(C)C(=O)[C@H]([C@@H](C)O)N2C(=O)[C@H](CC[C@H]2O)NC(=O)[C@H](CC(C)C)NC(=O)[C@@H](NC(=O)[C@H](CCC(N)=O)NC(=O)[C@H](CCc2ccc(O)cc2)NC(=O)[C@@H](O)CO)[C@@H](C)OC1=O [Planktopeptin BL1125] | 6.10 |
| Cyanopeptolin CP978 | 6.59 |
| CCCCCCCC(=O)N[C@@H](CCC(=O)O)C(=O)N[C@@H]1C(=O)N[C@@H](Cc2ccc(O)cc2)C(=O)N[C@H]2CC[C@@H](O)N(C2=O)[C@@H](CC(C)C)C(=O)N(C)[C@@H](Cc2ccc(O)cc2)C(=O)N[C@@H](C(C)C)C(=O)O[C@@H]1C [Micropeptin F] | 5.82 |
| CCC(C)C(=O)N[C@@H](CCC(N)=O)C(=O)N[C@@H]1C(=O)N[C@@H](CC(C)C)C(=O)N[C@H]2CC[C@@H](O)N(C2=O)[C@@H](Cc2ccccc2)C(=O)N(C)[C@@H](Cc2ccc(O)cc2)C(=O)N[C@@H](C(C)C)C(=O)O[C@@H]1C (some centres unmarked) [Crocapeptin A3] | 7.00 |
| CC[C@@H](C)[C@H]1C(=O)N(C)[C@@H](Cc2ccc(OC)c(Br)c2)C(=O)N[C@@H]([C@@H](C)CC)C(=O)O[C@H](C)[C@H](NC(=O)[C@@H](NC(=O)[C@@H](COS(=O)(=O)O)OC)C(C)C)C(=O)N[C@@H](CCCCN)C(=O)N[C@H]2CC[C@@H](O)N1C2=O [Jizanpeptin C] ({Propanoyl(2R-OMe,3-OSO3H)}-VTK[Ahp(3S,6R)alloIle][NMeTyr(3-Br,OMe)]I; ester 2-C) | 5.85 |
| Tutuilamide C | 6.27 |
